In this experiment the target is T1, ferroportin (Fpn) (Mus musculus, UniProt Q9JHI9).
T1 construct: endogenous in cells; host or cells: J774 mouse macrophage cell line, induced with Fe(III)NTA
T1 sequence (Q9JHI9 1-570): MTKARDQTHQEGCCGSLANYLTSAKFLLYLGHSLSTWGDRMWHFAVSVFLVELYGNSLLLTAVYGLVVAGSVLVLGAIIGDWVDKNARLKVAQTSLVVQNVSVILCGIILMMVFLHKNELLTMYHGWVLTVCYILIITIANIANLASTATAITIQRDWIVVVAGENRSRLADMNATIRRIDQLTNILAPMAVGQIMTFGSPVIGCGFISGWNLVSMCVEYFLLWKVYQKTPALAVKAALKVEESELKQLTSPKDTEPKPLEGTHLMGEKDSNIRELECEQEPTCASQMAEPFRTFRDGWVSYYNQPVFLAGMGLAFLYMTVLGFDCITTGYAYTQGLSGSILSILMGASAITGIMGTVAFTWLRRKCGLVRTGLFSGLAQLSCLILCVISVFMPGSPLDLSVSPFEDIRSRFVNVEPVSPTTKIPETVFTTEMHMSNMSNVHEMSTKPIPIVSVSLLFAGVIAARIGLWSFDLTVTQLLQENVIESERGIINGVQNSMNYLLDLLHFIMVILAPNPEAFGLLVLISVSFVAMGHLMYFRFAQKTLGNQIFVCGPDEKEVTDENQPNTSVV
In words: Hepcidin Internalization Assay (J774). It is filed as cell-based. The conditions noted are these: J774 cells, TMR-hepcidin 25 nM, 2 hours; read-out: IC 50, average (AVE) of multiple measurements, hepcidin internalization assay. From the text:
This cellular assay allows quantification of the binding of hepcidin to ferroportin (Fpn) through microscopic detection of internalization of a fluorescently labeled hepcidin into J774 cells. […] Binding of hepcidin to Fpn triggers internalization and degradation of both hepcidin and Fpn. […] Therefore, microscopic detection of cell-associated TMR fluorescence is a measure of hepcidin binding to Fpn and internalization of hepcidin and Fpn. If TMR-hepcidin is prevented from binding to Fpn, cellular TMR fluorescence remains low (Dürrenberger et al, 2013). The effect of small molecular weight Fpn inhibitor compounds in this assay was evaluated in vitro as described below. […] Cat. 655090) and grown at 37° C. with 5% CO2. After overnight incubation, cells were washed 3 times with pre-warmed DMEM w/o phenol red, 30 μl/well of DMEM w/o phenol red was added after the final wash and 10 μl/well of dilution series of test compounds were added in triplicates. […] Cells were incubated in a total volume of 50 μl at 37° C. with 5% CO2 for 2 hours, then Hoechst 33342 dye was added to a final concentration of 0.5 μg/ml to stain nuclei and further incubated for 10 min. at 37° C. with 5% CO2. […] After removal of the paraformaldehyde solution, cells were washed 3 times with PBS leaving 100 μl per well and the plates were sealed with foil plate seal. […] The acquired image data was analysed with the […] analysis software. […] IC50 values were calculated with the Sum(Mean) raw data using “log(inhibitor) vs. response” curve fitting of Prism 5 software (GraphPad Software Inc., version 5.02). For each data set the fit of the “log(inhibitor) vs. response (three parameters)” model was compared to the fit of the “log(inhibitor) vs. response-Variable slope (four parameters)” model and the IC50 data of the preferred model was used.

From patent publication US20240239780A1, “MODIFIED FERROPORTIN INHIBITORS” (Vifor (International) AG, priority 2021, published 2024) come the findings set out here.

`O=C(NCc1ncccc1F)c1coc(CCNCCc2nc3cc(C#Cc4cccnc4)ccc3[nH]2)n1` [compound 73]: the IC50 amounted to 2 nM.
For `O=C(NCc1ncccc1F)c1coc(CCNCCc2nc3cnc4ccccc4c3[nH]2)n1` [compound 3, 2-(2-((2-(3H-imidazo[4,5-c]quinolin-2-yl)ethyl)amino)ethyl)-N-((3-fluoropyridin-2-yl)methyl)oxazole-4-carboxamide] the value was 593 nM.
For `Cc1cccnc1CNC(=O)c1coc(CCNCCc2nc3cc(-c4ccccc4)ccc3[nH]2)n1` [compound 52] the value was 26 nM.
For `CN(C)C(=O)c1cccc(C#Cc2ccc3[nH]c(CCNCCc4nc(C(=O)NCc5ncccc5F)co4)nc3c2)c1` [compound 76] the value was 3 nM; for `O=C(NCc1ncccc1F)c1coc(CCNCCc2nc3cccc(C#Cc4ccccc4)c3[nH]2)n1` [compound 37], 34 nM.
As to `O=C(NCc1ncccc1F)c1coc(CCNCCc2nc3c(-c4cccc(Cl)c4)cccc3[nH]2)n1` [compound 28], the IC50 was 144 nM.
For `COc1cccnc1CNC(=O)c1coc(CCNCCc2nc3cc(-c4ccc(C)cc4)ccc3[nH]2)n1` [compound 74] the value was 7 nM; for `COc1cccnc1CNC(=O)c1coc(CCNCCc2nc3cc(-n4cccc4)ccc3[nH]2)n1` [compound 54], 37 nM; for `O=C(NCc1ncccc1F)c1coc(CCNCCc2nc3cccc(C#Cc4cccc(-c5ncco5)c4)c3[nH]2)n1` [compound 79], 84 nM.
With `O=C(NCc1ncccc1F)c1coc(CCNCCc2nc3cc(-c4ccc(Cl)cc4)ccc3[nH]2)n1` [compound 57], the IC50 is 27 nM.
As to `O=C(NCc1ncccc1F)c1coc(CCNCc2nc3cc4ccccc4cc3[nH]2)n1` [compound 1, 2-(2-(((1H-naphtho[2,3-d]imidazol-2-yl)methyl)amino)ethyl)-N-((3-fluoropyridin-2-yl)methyl)oxazole-4-carboxamide], the IC50 came out at 40 nM.
As for `COc1ccccc1-c1ccc2[nH]c(CCNCCc3nc(C(=O)NCc4ncccc4C)co3)nc2c1` [compound 49], the IC50 stood at 18 nM.
In the case of `Cc1cccnc1CNC(=O)c1coc(CCNCCc2nc3c(ccc4ccccc43)[nH]2)n1` [compound 13], the IC50 turned out to be 55 nM.
Take `O=C(NCc1ncccc1F)c1coc(CCNCCc2nc3ccc(-c4nn[nH]n4)cc3[nH]2)n1` [compound 40]: the IC50 was 1040 nM.
On to `O=C(NCc1ncccc1F)c1coc(CCNCCc2nc3cccc(C#Cc4cccnc4)c3[nH]2)n1` [compound 80], for which the IC50 amounted to 83 nM.
For the compound `COc1ccc(-c2ccc3[nH]c(CCNCCc4nc(C(=O)NCc5ncccc5F)co4)nc3c2)cc1` [compound 64], the IC50 was 10 nM.
Take `COc1cccnc1CNC(=O)c1coc(CCNCCc2nc3cc4c(cc3[nH]2)OCCO4)n1` [compound 48]: the IC50 was 26 nM.
The figure for `O=C(NCc1nc2ccccc2c2ccccc12)c1coc(CCNCCc2nc3c(ccc4ccccc43)[nH]2)n1` [compound 8] is 6700 nM; for `O=C(NCc1ncccc1F)c1coc(CCNCCc2nc3c(-c4cccnc4)cccc3[nH]2)n1` [compound 18] it is 53 nM; for `O=C(NCc1ncccc1F)c1coc(CCNCCc2nc3cc(-c4cccc5c4CCCC5)ccc3[nH]2)n1` [compound 82] it is 15 nM.
`O=C(NCc1ccc2c(ccc3ccccc32)n1)c1coc(CCNCCc2nc3ccccc3[nH]2)n1` [compound 6, 2-(2-((2-(1H-benzo[d]imidazol-2-yl)ethyl)amino)ethyl)-N-(benzo[f]quinolin-3-ylmethyl)oxazole-4-carboxamide]: the IC50 is 1600 nM.
The figure for `Cc1cccnc1CNC(=O)c1coc(CCNCCc2nc3cc4c(cc3[nH]2)OCCO4)n1` [compound 47] is 11 nM.
Take `O=C(NCc1ncccc1F)c1coc(CCNCc2nc3cnc4ccccc4c3[nH]2)n1` [compound 2, 2-(2-(((3H-imidazo[4,5-c]quinolin-2-yl)methyl)amino)ethyl)-N-((3-fluoropyridin-2-yl)methyl)oxazole-4-carboxamide]: the IC50 came to 350 nM.
For `O=C(NCc1ncccc1F)c1coc(CCNCCc2nc3cc(CCc4ccccc4)ccc3[nH]2)n1` [compound 75] the value was 2 nM.
For `O=C(NCc1ncccc1C(F)(F)F)c1coc(CCNCCc2nc3cc4c(cc3[nH]2)OCCO4)n1` [compound 56] the value was 49 nM.
With `O=C(NCc1ccccn1)c1coc(CCNCCc2nc3cc(-c4cccc(F)c4)ccc3[nH]2)n1` [compound 69], the IC50 is 61 nM.
With `COCCOc1ccccc1-c1ccc2[nH]c(CCNCCc3nc(C(=O)NCc4ncccc4F)co3)nc2c1` [compound 68], the IC50 was determined as 7 nM.
Take `Cc1cccc(-c2ccc3[nH]c(CCNCCc4nc(C(=O)NCc5ncccc5F)co4)nc3c2)c1C` [compound 84]: the IC50 is 12 nM.
For `O=C(NCc1ncccc1F)c1coc(CCNCCc2nc3cc(-c4cccc(-c5ncco5)c4)ccc3[nH]2)n1` [compound 87] the value was 14 nM; for `O=C(NCc1ncccc1F)c1coc(CCNCCc2nc3cc(-c4ccc(-c5ncco5)cc4)ccc3[nH]2)n1` [compound 90], 5.8 nM; for `O=C(NCc1ncccc1C(F)(F)F)c1coc(CCNCCc2nc3cc(-n4cccc4)ccc3[nH]2)n1` [compound 58], 171 nM.
The figure for `O=C(NCc1ncccc1F)c1coc(CCNCCc2nc3cc(-c4ccccc4-c4ncco4)ccc3[nH]2)n1` [compound 86] is 9 nM; for `COc1ccccc1-c1ccc2[nH]c(CCNCCc3nc(C(=O)NCc4ncccc4OC)co3)nc2c1` [compound 51] it is 17 nM; for `O=C(NCc1nc2ccccc2c2ccccc12)c1coc(CCNCCc2nc3ccccc3[nH]2)n1` [compound 7] it is 1590 nM.
Regarding `O=C(NCc1ncccc1F)c1coc(CCNCCc2nc3cc(-c4ccc5c(c4)OCCO5)ccc3[nH]2)n1` [compound 88], the IC50 was found to be 12 nM.
The figure for `COc1cccc(-c2ccc3[nH]c(CCNCCc4nc(C(=O)NCc5ncccc5F)co4)nc3c2)c1OC` [compound 83] is 6 nM; for `O=C(NCc1ncccc1F)c1coc(CCNCCc2nc3cc(-c4cccc(Cl)c4)ccc3[nH]2)n1` [compound 85] it is 11 nM; for `O=C(NCc1ncccc1F)c1coc(CCNCCc2nc3cc4c(cc3[nH]2)OCCO4)n1` [compound 34] it is 7 nM.
Regarding `O=C(NCc1ncccc1F)c1coc(CCNCCc2nc3cc4ccccc4cc3[nH]2)n1` [compound 43], the IC50 stood at 9 nM.
For `O=C(NCc1ccc2c(ccc3ccccc32)n1)c1coc(CCNCCc2nc3c(cnc4ccccc43)[nH]2)n1` [compound 12] the value was 13900 nM; for `COc1cccnc1CNC(=O)c1coc(CCNCCc2nc3c(ccc4ccccc43)[nH]2)n1` [compound 15], 33 nM.
For `COc1ccccc1-c1ccc2[nH]c(CCNCCc3nc(C(=O)NCc4ncccc4F)co3)nc2c1` [compound 45] the value was 6 nM; for `O=C(NCc1ncccc1Cl)c1coc(CCNCCc2nc3cc(-n4cccc4)ccc3[nH]2)n1` [compound 59], 28 nM.
For `O=C(NCc1ncccc1F)c1coc(CCNCCc2nc3cc4c(cc3[nH]2)OCO4)n1` [compound 36] the value was 11 nM; for `O=C(NCc1ncccc1F)c1coc(CCNCCc2nc3cc(-c4ccc5c(c4)CCCC5)ccc3[nH]2)n1` [compound 89], 10 nM.
